Test results taken from EP2085394B1, “Metronidazole derivatives as antiparasitic agents” (University of Jordan, priority 2008, dated 2009).
In brackets after ≈: the same amount, converted by molar mass.

Experiments:
Assay type in all cases: cell-based
[1] = tested on: Leishmania tropica promastigotes; assay: Antileishmanial activity, 96-well plates; conditions: for IC50: Leishmania tropica; for IC50 / IC100 Leishmania tropica: promastigotes, 72 h, 24°C; for lethal activity: Leishmania tropica promastigotes, result in words
Experimental: (§1) Entamoeba histolytica HK-9 strain (ATCC number 30015) was cultured in LYI-S-2 medium supplemented with antibiotics. Giardia intestinalis WB strain (ATCC number 30957) was grown in a modified YI-S medium with antibiotics. Both parasites were cultivated in 15-mL screw-capped borosilicate glass tubes containing 13 mL medium. The tubes were incubated on a 15° horizontal slant at (36-37) °C. Culture maintenance and subculturing was performed as described by Clark and Diamond. Entamoeba and Giardia were harvested from confluent cultures by chilling of the tubes on ice for 5-10 min to detach cells, followed by centrifugation at 800 x g for 5 min. Leishmania donovani and L. tropica promastigotes were cultured in Schneider's medium containing 20 % foetal calf serum and antibiotics at 24°C. Stationary phase promastigotes were harvested by centrifugation at 1000 x g for 10 min.
(§2) The antileishmanial activity of metronidazole-derivatives was tested in 96-well plates. Each of the meronidazole-derivatives and the reference drugs were dissolved in 10 µL of dimethyl sulfoxide (DMSO) and were completed with […] growth medium. The solutions were filter sterilized using 0.22 µm syringe filters. Then, 170 µL-two fold serial dilutions of each of the compounds and metronidazole starting at a concentration of 2000 µg/mL in culture medium were prepared in flat bottomed 96-well microtiter plates of 400-µL-well-capacity. A suspension containing 10^5 of Leishmania promastigotes per milliliter culture medium was prepared and 170-µL portions of the suspension were added to the appropriate wells. Plates were covered with the microtiter plate lids and incubated at 24°C. The number of parasites in each well was determined after 72 h by counting in a hemacytometer at the 10X objective lens. Leishmania viability was determined by observing promastigote motility. Each compound was assayed in duplicate in each of three independent experiments. In each assay two sets of controls were performed, one without any test compound and another with amphotericin B as a standard antileishmanial drug.
(§3) The minimal inhibitory concentration (MIC) defined as the minimum concentration of a compound at which no parasitic growth was observed. The 50% inhibitory concentration (IC50) was the concentration of compounds which cut the number of parasites to half that in the negative control (growth medium + DMSO + parasites).

[2] = tested on: Leishmania donovani promastigotes; assay: Antileishmanial activity, 96-well plates; conditions: for IC50: Leishmania donovani; for IC50 / IC100 Leishmania donovani: promastigotes, 72 h, 24°C; for lethal activity: Leishmania donovani promastigotes, result in words
Experimental: as §1, §2, §3

[3] = tested on: Entamoeba histolytica HK-9 strain; assay: Antiamoebic activity, tube method; conditions: for IC100 Entamoeba histolytica / IC50: 72 hours, (36-37) °C, parasite count; for lethal activity / IC50 / IC50 times less than that of metronidazole: Entamoeba histolytica; for lethal activity: result in words; for IC50 times less than that of metronidazole: relative to the standard drug metronidazole
Experimental: as §1
(§4) The antiamoebic and antigiardial activities of metronidazole-derivatives were tested using the tube method according to published procedures with some modifications. Eight milligrams of a test compound or metronidazole were dissolved in 10 µL of dimethyl sulfoxide (DMSO) and completed with 10 mL growth medium. The solutions were filter sterilized using 0.22 µm syringe filters and the appropriate volumes of the solutions were taken to prepare the concentrations of each compound in 15-mL screw-capped borosilicate glass tubes. For each compound, concentrations of 60, 30, 15, 7.5, 3.5, 1.7, 0.8, 0.4, 0.2, 0.1, 0.05, 0.02, 0.01, 0.005 µg/mL medium were prepared in a final volume of 15 mL to exclude air from the tube. For more accurate determination of the biologically active concentration of the compound, other concentrations around the above mentioned ones were also tested. Each tube was inoculated with 20,000 cells of the parasite under testing (Entamoeba or Giardia). Each compound was assayed in duplicate in each of three independent experiments. In each assay, two sets of controls were performed, one without any test compound and another with metronidazole. The caps of Entamoeba and Giardia tubes were tightly screwed and wrapped with parafilm. The tubes were incubated on a 15° horizontal slant at (36-37) °C for 72 hours.
(§5) The number of parasites in the tubes was determined as described in the literature by counting in a hemacytometer at the 10X objective. For counting of Entamoeba and Giradia, the tubes were placed on ice to permit detachment of the parasite and centrifuged at 1000 x g for 10 min. The supernatant was discarded and 1 mL fresh medium was added to each tube. Then, 25 µL of the parasite suspension in each tube was mixed with 100 µL of 0.4 % trypan blue in phosphate buffered saline (PBS) to distinguish viable from dead parasites.
as §3

[4] = tested on: Giardia intestinalis WB strain; assay: Antigiardial activity, tube method; conditions: for IC100 Giardia intestinalis / IC50: 72 hours, (36-37) °C, parasite count; for IC50: Giardia duodenalis; for lethal activity / IC50 times less than that of metronidazole: Giardia intestinalis; for lethal activity: result in words; for IC50 times less than that of metronidazole: relative to the standard drug metronidazole
Experimental: as §1, §4, §5, §3

Hep-2 cells = assay: Cytotoxicity assay, trypan blue exclusion; conditions: compared with the standard drug
Experimental: (§6) The cytotoxicity of the metronidazole-derivatives and the reference drugs was investigated on Hep-2 and Vero cells using the standard cytotoxicity assay and the trypan blue exclusion method, as described in the literature, with modifications. A cell suspension (10^5 cells/mL RPMI medium containing 10% inactivated foetal calf serum) was prepared from confluent cultures and 100 µL portions of the suspension were added to the wells of 96-well plates. The cells were incubated for 24 h at 37 °C and 5 % CO2 and the medium in each well was then replaced with fresh 150 µL medium. Solutions of the test compounds or reference drugs were prepared and sterilized as described above (Antiprotozolal activity). Then, 150 µL-two fold serial dilutions of each of the compounds and the reference drugs starting at a concentration of 2000 µg/mL in culture medium were prepared in the plates. After 48 hour incubation at 37 °C and 5 % CO2, the number of cells in each well was determined as follows: The medium in each well was gently replaced with 100 µL of 0.25% (w/v) trypsin-0.53 mM EDTA solution and the plates were incubated for 5 minute at 37 °C to detach the cells followed by the addition of 200 µL of trypan blue solution were added to each well and the plates were, then, placed on ice. The cells were counted in a hemacytometer at the 10X objective. Each compound or reference drug was assayed in duplicate in each of three independent experiments. In each assay the negative controls (without any test compound or reference drug) were included in duplicates. IC0 was the concentration of compound at which the number of cells in the well was more than or equal to that of the negative control (IC0 = no inhibition of cell growth). Table 1. Antiamoebic and antigiardial activities of compounds IA, IIA, and IIIA

Vero cells = assay: Cytotoxicity assay, trypan blue exclusion; conditions: compared with the standard drug
Experimental: as §6

| SMILES | IC50 [1] [µg/mL] | IC50 [2] [µg/mL] | IC50 [3] [µg/mL] | IC50 times less than that of metronidazole [3] [times] | IC50 [4] [µg/mL] | IC50 times less than that of metronidazole [4] [times] | IC100 Leishmania tropica [1] [µg/mL] | IC100 Leishmania donovani [2] [µg/mL] | IC100 Entamoeba histolytica [3] [µg/mL] | lethal activity [3] | IC100 Giardia intestinalis [4] [µg/mL] | lethal activity [4] | cytotoxicity (Hep-2 cells) | cytotoxicity (Vero cells) | lethal activity [1] | lethal activity [2] |
| --- | --- | --- | --- | --- | --- | --- | --- | --- | --- | --- | --- | --- | --- | --- | --- | --- |
| C[C@@H]1[C@H](O)[C@@H](C)/C=C/C=C/C=C/C=C/C=C/C=C/C=C/[C@H](O[C@@H]2O[C@H](C)[C@@H](O)[C@H](N)[C@@H]2O)C[C@@H]2O[C@](O)(C[C@@H](O)C[C@@H](O)[C@H](O)CC[C@@H](O)C[C@@H](O)CC(=O)O[C@H]1C)C[C@H](O)[C@H]2C(=O)O [Amphotericin B, reference compound] | 0.08 (≈ 0.0866 µM) | 0.08 (≈ 0.0866 µM) | – | – | – | – | 2.5 | 2.5 | – | – | – | – | – | – | – | – |
| Cc1ncc([N+](=O)[O-])n1CCNS(=O)(=O)c1sc(Cl)cc1Br [IIA] | 150 (≈ 349 µM) | 300 (≈ 698 µM) | 0.04 (≈ 0.0931 µM) | 20 | 0.04 (≈ 0.0931 µM) | 20 | 2000 | 2000 | 0.3 | potent lethal activity | 0.3 | potent lethal activity | equivalent in cytotoxicity to the standard drug | equivalent in cytotoxicity to the standard drug | lethal activity | lethal activity |
| Cc1ncc([N+](=O)[O-])n1CCN1CCN(CCO)CC1 [IIIA] | 62.5 (≈ 221 µM) | 62.5 (≈ 221 µM) | 0.04 (≈ 0.141 µM) | 20 | 0.04 (≈ 0.141 µM) | 20 | 250 | 250 | 0.8 | potent lethal activity | 0.8 | potent lethal activity | equivalent in cytotoxicity to the standard drug | equivalent in cytotoxicity to the standard drug | lethal activity | lethal activity |

The next lines start with results.

| IC50 [1] [µg/mL] | IC50 [2] [µg/mL] | IC50 [3] [µg/mL] | IC50 times less than that of metronidazole [3] [times] | IC50 [4] [µg/mL] | IC50 times less than that of metronidazole [4] [times] | SMILES | IC100 Leishmania tropica [1] [µg/mL] | IC100 Leishmania donovani [2] [µg/mL] | IC100 Entamoeba histolytica [3] [µg/mL] | lethal activity [3] | IC100 Giardia intestinalis [4] [µg/mL] | lethal activity [4] | cytotoxicity (Hep-2 cells) | cytotoxicity (Vero cells) | lethal activity [1] | lethal activity [2] |
| --- | --- | --- | --- | --- | --- | --- | --- | --- | --- | --- | --- | --- | --- | --- | --- | --- |
| 2000 (≈ 11700 µM) | 2000 (≈ 11700 µM) | 0.8 (≈ 4.67 µM) | – | 0.8 (≈ 4.67 µM) | – | Cc1ncc([N+](=O)[O-])n1CCO [Metronidazole, 2-(2-methyl-5-nitro-1H-imidazol-1-yl) ethanol] | – | – | 3.2 | – | 3.2 | – | – | – | – | – |
| 150 (≈ 545 µM) | 300 (≈ 1090 µM) | 0.01 (≈ 0.0363 µM) | 80 | 0.01 (≈ 0.0363 µM) | 80 | Cc1ncc([N+](=O)[O-])n1CCOc1ccc(C=O)cc1 [Compound IA, 4-[2-(2-methyl-5-nitro-1H-imidazol-1-yl)ethoxy]benzaldehyde] | 2000 | 2000 | 0.14 | potent lethal activity | 0.14 | potent lethal activity | equivalent in cytotoxicity to the standard drug | equivalent in cytotoxicity to the standard drug | lethal activity | lethal activity |
